What was measured:
[1] = test system: participants who had self-reported drug dependencies to a drug of concern; assay: Exploratory study of bromantane intervention in participants with self-reported drug dependencies; type: in vivo, human
Method: To investigate the utility of bromantane as a single-agent pharmacological intervention to interrupt stimulant dependence, an exploratory study was conducted with participants who had self-reported drug dependencies to a drug of concern. The intervention consisted of Test Article (bromantane) administered at a dose of 50 mg qd po for 7 days, starting on the first day of Week 1 of the study. Results from the exploratory study are summarized in [FIG. 2]. The number of days the drug of concern was used by the participant during each 1-week period during the 4-week study is shown in the Drug Dependency column.
In addition to being an effective single-agent pharmacological intervention to interrupt stimulant dependence, it was discovered that bromantane has utility as a treatment for certain comorbidities that are specifically underpinned by maladaptive learning, such as occupational burnout exacerbated by conditioned fear responses and attention-deficit/hyperactivity disorder arising from inhibitory control dysfunction. […] Therefore, the present disclosure also provides novel therapeutic methods of use for bromantane to facilitate extinction learning in the treatment of mental disorders or syndromes.

[2] = Dynamic Vapor Sorption (DVS) isothermal water sorption and desorption; type: physicochemical; settings: 25° C. and 80% RH
Method: The solubility advantage imparted by a specific salt form of bromantane compared to the free base form cannot be predicted with certainty because the interactions of the counterion with the therapeutic agent and dissolution medium are unique and complex. Empirical testing is necessary. Dynamic Vapor Sorption (DVS) testing was performed to compare the isothermal water sorption and desorption behaviors of bromantane free base Form I [FIG. 22] with that of bromantane hydrochloride Form I [FIG. 23].

[3] = Aqueous equilibrium solubility, slurry in water, HPLC of supernatant; type: physicochemical; settings: 24 hours of equilibration at room temperature
[4] = Onset of therapeutic effect after oral administration; type: in vivo; settings: orally administered
Source text: The objective of the present disclosure is to improve the standard of care in treating mental disorders, such as StUD, by facilitating extinction learning through the administration of a therapeutically effective amount of bromantane or an analogue thereof. While bromantane or an analogue of bromantane can be administered uncompounded, administering a pharmaceutical preparation that ensures consistent absorption and fosters patient adherence to the treatment regimen is advantageous. For example, the onset of therapeutic effect for orally administered crystalline bromantane free base is slow (2-3 hours) due to solubility-limited absorption and high first-pass extraction. Preparations that improve bromantane's solubility or bioavailability to produce a faster onset of therapeutic effect are advantageous for addressing acute incentive salience expeditiously in the treatment of StUD, thereby increasing the likelihood of patient adherence to the treatment regimen and reducing the likelihood of relapse. Accordingly, the present disclosure also provides novel, advantageous pharmaceutical preparations of bromantane and their methods of use.

[5] = participants with cocaine or amphetamine dependencies, 50 mg qd po for 7 days, 4-week study

Structure (SMILES) | cravings and withdrawal syndrome associated with addiction to stimulants of abuse ([1]; amphetamine, methamphetamine, cocaine) | counterproductive behaviors and thought patterns triggered by conditioned stimuli ([1]; analysis of subjective effects reported by participants) | secondary dependence ([1]; in vivo) | opioid use ([1]; participant with opioid dependence, during the period of intervention, 50 mg qd po for 7 days) | abstinence from drug of concern [1, 5] | duration of maintained abstinence [1, 5] | caffeine use ([1]; participants, 50 mg qd po for 7 days) | insomnia caused by rumination ([1]; self-reported by participants) | temperament (threshold for irritability or anger) ([1]; self-reported by participants) | hygroscopicity (water gain by DVS) [2] | equilibrium solubility in water (solution state concentration of bromantane) [3] | onset of therapeutic effect [4] [h]
Brc1ccc(NC2C3CC4CC(C3)CC2C4)cc1 (stereo not drawn) [bromantane] | eliminates or significantly reduces | pronounced reduction | without leading to secondary dependence | reduction in opioid use | achieved abstinence on the first day of intervention | maintain abstinence for approximately three weeks | unplanned reduction in caffeine use | Alleviation of insomnia | improved temperaments | – | – | –
Brc1ccc(NC2C3CC4CC(C3)CC2C4)cc1 (stereo not drawn) [bromantane free base Form I] | – | – | – | – | – | – | – | – | – | non-hygroscopic (x<0.2% w/w gain at 25 °C and 80% RH) | below the detection limit | 2 to 3

— patent publication US20260191802A1, “DRUG TO TREAT STIMULANT ADDICTION” (SINGLE DOSE THERAPEUTICS, INC., priority 2023, published 2026)
